How the values were obtained:
[1] = target: NUAK family SNF1-like kinase 1 (Homo sapiens) (UniProt O60285); conditions: Compound concentration 1000.0 nM
[2] = target: Serine/threonine-protein kinase 24 (Homo sapiens) (UniProt Q9Y6E0); conditions: Compound concentration 1000.0 nM
[3] = target: Phosphatidylinositol 4-phosphate 5-kinase type-1 gamma (Homo sapiens) (UniProt O60331); conditions: Compound concentration 1000.0 nM
[4] = target: G protein-coupled receptor kinase 3 (Homo sapiens) (UniProt P35626); conditions: Compound concentration 1000.0 nM
[5] = target: Cyclin-dependent kinase 8 (Homo sapiens) (UniProt P49336); conditions: Compound concentration 1000.0 nM
[6] = target: Delta-type opioid receptor (Homo sapiens) (UniProt P41143); conditions: Compound concentration 10.0 uM
[7] = target: T1, Muscarinic acetylcholine receptor M1 (Homo sapiens) (UniProt P11229); conditions: Compound concentration 10.0 uM
T1 sequence (whole entry): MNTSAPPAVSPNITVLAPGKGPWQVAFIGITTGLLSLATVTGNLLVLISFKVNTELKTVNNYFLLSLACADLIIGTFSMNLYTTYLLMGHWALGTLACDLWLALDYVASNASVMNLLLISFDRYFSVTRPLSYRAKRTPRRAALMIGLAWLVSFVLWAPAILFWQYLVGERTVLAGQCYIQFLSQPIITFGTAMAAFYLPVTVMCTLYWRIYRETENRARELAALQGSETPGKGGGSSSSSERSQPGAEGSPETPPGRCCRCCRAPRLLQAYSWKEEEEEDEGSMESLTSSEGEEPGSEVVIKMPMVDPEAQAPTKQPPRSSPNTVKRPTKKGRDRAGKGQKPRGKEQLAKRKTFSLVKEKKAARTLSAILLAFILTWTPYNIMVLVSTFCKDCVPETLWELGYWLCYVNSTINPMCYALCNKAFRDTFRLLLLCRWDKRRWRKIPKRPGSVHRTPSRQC

[8] = target: cGMP-dependent protein kinase 2 (Homo sapiens) (UniProt Q13237); conditions: Compound concentration 1000.0 nM
[9] = target: Transient receptor potential cation channel subfamily M member 6 (Homo sapiens) (UniProt Q9BX84); conditions: Compound concentration 1000.0 nM
[10] = target: Sodium-dependent noradrenaline transporter (Homo sapiens) (UniProt P23975); conditions: Compound concentration 10.0 uM
Sequence of Sodium-dependent noradrenaline transporter (Homo sapiens) (P23975 whole entry): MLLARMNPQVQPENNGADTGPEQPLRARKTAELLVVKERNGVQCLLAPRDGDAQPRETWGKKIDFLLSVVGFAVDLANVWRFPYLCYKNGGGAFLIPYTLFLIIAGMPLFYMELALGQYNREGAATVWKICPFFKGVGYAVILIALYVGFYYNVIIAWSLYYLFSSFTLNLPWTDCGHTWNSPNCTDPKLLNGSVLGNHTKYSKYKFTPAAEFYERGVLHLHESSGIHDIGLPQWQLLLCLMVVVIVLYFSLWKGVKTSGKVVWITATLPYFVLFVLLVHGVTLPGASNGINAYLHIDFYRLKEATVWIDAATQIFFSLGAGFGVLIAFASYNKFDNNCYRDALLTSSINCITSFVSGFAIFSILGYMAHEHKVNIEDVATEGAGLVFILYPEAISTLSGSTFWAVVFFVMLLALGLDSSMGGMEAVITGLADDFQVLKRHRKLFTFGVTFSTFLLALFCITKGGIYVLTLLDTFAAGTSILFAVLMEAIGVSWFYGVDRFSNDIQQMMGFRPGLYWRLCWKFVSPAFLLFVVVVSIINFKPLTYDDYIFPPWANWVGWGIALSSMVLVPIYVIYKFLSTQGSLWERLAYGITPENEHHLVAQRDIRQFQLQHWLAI

[11] = target: Mitogen-activated protein kinase kinase kinase 12 (Homo sapiens) (UniProt Q12852); conditions: Compound concentration 1000.0 nM
Sequence of Mitogen-activated protein kinase kinase kinase 12 (Homo sapiens) (Q12852 whole entry): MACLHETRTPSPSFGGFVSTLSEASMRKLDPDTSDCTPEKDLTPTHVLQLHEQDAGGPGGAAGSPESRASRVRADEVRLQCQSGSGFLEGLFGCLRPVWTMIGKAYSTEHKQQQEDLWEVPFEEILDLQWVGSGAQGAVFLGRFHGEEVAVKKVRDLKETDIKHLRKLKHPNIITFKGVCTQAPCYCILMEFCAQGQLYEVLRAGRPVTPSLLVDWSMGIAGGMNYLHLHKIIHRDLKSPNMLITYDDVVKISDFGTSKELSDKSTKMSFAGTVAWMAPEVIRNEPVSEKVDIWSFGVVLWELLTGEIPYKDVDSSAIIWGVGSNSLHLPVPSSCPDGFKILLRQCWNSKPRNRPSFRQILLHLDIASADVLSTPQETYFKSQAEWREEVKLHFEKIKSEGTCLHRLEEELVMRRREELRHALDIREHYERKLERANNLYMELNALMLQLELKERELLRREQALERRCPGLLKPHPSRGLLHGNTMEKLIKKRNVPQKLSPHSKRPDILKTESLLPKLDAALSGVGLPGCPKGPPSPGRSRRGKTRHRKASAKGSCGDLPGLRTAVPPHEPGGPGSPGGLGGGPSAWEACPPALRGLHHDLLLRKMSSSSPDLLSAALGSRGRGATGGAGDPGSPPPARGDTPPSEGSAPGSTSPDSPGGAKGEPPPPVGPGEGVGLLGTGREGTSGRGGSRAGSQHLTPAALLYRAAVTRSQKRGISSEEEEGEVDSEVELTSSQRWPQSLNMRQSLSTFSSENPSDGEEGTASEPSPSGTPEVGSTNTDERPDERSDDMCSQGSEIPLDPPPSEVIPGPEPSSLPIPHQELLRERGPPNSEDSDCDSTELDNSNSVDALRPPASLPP

[12] = target: Tyrosine-protein kinase ABL2 (Homo sapiens) (UniProt P42684); conditions: Compound concentration 1000.0 nM
[13] = target: Serine/threonine-protein kinase OSR1 (Homo sapiens) (UniProt O95747); conditions: Compound concentration 1000.0 nM
[14] = target: Tyrosine-protein kinase SYK (Homo sapiens) (UniProt P43405); conditions: Compound concentration 1000.0 nM
[15] = target: Aurora kinase C (Homo sapiens) (UniProt Q9UQB9); conditions: Compound concentration 1000.0 nM
[16] = target: Receptor-interacting serine/threonine-protein kinase 4 (Homo sapiens) (UniProt P57078); conditions: Compound concentration 1000.0 nM
[17] = target: Tyrosine-protein kinase Fgr (Homo sapiens) (UniProt P09769); conditions: Compound concentration 1000.0 nM
Sequence of Tyrosine-protein kinase Fgr (Homo sapiens) (P09769 2-529 limits assumed): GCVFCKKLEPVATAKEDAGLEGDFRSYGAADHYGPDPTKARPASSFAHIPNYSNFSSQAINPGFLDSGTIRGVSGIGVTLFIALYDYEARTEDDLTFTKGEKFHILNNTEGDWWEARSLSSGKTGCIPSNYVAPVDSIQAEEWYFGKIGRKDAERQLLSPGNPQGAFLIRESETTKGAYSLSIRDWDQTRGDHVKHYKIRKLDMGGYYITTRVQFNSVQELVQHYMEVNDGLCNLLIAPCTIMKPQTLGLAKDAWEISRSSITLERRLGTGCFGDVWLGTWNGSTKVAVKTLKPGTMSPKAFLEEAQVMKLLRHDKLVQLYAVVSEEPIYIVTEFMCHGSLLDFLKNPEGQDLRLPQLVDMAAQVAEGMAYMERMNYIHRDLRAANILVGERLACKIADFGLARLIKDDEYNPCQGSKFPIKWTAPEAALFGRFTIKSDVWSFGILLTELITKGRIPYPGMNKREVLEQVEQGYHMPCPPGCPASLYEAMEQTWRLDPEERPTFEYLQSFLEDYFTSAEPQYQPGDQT

[18] = system: Phosphatidylinositol 4,5-bisphosphate 3-kinase catalytic subunit alpha isoform (Homo sapiens), P42336 [Q546K]; conditions: Compound concentration 1000.0 nM
[19] = target: Serine/threonine-protein kinase DCLK3 (Homo sapiens) (UniProt Q9C098); conditions: Compound concentration 1000.0 nM
Sequence of Serine/threonine-protein kinase DCLK3 (Homo sapiens) (Q9C098 whole entry): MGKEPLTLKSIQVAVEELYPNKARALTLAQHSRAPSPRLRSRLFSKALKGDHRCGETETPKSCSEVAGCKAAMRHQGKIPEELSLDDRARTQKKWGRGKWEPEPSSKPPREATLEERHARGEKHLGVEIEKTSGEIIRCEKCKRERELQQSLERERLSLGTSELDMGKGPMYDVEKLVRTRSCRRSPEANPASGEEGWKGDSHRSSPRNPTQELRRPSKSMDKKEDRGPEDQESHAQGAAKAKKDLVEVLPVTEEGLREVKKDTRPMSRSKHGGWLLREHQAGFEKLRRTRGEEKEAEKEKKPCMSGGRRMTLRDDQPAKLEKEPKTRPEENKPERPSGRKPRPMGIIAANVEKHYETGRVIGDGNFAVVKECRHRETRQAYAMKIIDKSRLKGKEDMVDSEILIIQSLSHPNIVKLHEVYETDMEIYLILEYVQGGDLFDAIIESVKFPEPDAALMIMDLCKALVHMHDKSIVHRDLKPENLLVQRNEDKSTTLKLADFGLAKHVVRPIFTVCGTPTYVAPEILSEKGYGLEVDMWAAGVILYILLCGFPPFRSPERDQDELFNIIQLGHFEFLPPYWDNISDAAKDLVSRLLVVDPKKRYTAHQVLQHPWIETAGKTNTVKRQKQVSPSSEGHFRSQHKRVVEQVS

[20] = target: Tyrosine-protein kinase JAK3 (Homo sapiens) (UniProt P52333); conditions: Compound concentration 1000.0 nM
[21] = target: Serine/threonine-protein kinase ULK3 (Homo sapiens) (UniProt Q6PHR2); conditions: Compound concentration 1000.0 nM
[22] = target: Cyclin-dependent kinase-like 1 (Homo sapiens) (UniProt Q00532); conditions: Compound concentration 1000.0 nM
[23] = target: Tyrosine-protein kinase Srms (Homo sapiens) (UniProt Q9H3Y6); conditions: Compound concentration 1000.0 nM
[24] = target: 3-phosphoinositide-dependent protein kinase 1 (Homo sapiens) (UniProt O15530); conditions: Compound concentration 1000.0 nM
Sequence of 3-phosphoinositide-dependent protein kinase 1 (Homo sapiens) (O15530 whole entry): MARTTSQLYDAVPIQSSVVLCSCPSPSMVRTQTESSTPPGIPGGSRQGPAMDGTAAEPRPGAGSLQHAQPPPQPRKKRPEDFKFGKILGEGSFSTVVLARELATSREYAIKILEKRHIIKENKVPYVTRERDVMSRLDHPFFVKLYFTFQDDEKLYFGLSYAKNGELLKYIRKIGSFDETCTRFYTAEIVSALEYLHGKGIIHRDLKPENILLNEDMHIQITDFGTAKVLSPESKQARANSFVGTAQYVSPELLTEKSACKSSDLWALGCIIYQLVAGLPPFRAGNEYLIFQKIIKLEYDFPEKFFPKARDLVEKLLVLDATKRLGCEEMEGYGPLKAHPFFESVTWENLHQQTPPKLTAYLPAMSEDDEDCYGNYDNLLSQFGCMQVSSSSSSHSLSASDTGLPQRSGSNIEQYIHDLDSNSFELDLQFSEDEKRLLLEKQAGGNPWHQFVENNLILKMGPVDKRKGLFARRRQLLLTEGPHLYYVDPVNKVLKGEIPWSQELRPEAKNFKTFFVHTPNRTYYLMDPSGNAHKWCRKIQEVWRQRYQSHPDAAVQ

[25] = target: Vascular endothelial growth factor receptor 3 (Homo sapiens) (UniProt P35916); conditions: Compound concentration 1000.0 nM
[26] = target: Ephrin type-B receptor 6 (Homo sapiens) (UniProt O15197); conditions: Compound concentration 1000.0 nM
[27] = system: Tyrosine-protein kinase ABL1 (Homo sapiens), P00519 [H396P]; conditions: Compound concentration 1000.0 nM
[28] = target: Inhibitor of nuclear factor kappa-B kinase subunit beta (Homo sapiens) (UniProt O14920); conditions: Compound concentration 1000.0 nM
[29] = target: Serine/threonine-protein kinase MARK2 (Homo sapiens) (UniProt Q7KZI7); conditions: Compound concentration 1000.0 nM
[30] = target: Ephrin type-A receptor 7 (Homo sapiens) (UniProt Q15375); conditions: Compound concentration 1000.0 nM
[31] = target: Tyrosine-protein kinase Fer (Homo sapiens) (UniProt P16591); conditions: Compound concentration 1000.0 nM
[32] = target: Mitogen-activated protein kinase 9 (Homo sapiens) (UniProt P45984); conditions: Compound concentration 1000.0 nM
[33] = target: Tyrosine-protein kinase Tec (Homo sapiens) (UniProt P42680); conditions: Compound concentration 1000.0 nM
Sequence of Tyrosine-protein kinase Tec (Homo sapiens) (P42680 whole entry): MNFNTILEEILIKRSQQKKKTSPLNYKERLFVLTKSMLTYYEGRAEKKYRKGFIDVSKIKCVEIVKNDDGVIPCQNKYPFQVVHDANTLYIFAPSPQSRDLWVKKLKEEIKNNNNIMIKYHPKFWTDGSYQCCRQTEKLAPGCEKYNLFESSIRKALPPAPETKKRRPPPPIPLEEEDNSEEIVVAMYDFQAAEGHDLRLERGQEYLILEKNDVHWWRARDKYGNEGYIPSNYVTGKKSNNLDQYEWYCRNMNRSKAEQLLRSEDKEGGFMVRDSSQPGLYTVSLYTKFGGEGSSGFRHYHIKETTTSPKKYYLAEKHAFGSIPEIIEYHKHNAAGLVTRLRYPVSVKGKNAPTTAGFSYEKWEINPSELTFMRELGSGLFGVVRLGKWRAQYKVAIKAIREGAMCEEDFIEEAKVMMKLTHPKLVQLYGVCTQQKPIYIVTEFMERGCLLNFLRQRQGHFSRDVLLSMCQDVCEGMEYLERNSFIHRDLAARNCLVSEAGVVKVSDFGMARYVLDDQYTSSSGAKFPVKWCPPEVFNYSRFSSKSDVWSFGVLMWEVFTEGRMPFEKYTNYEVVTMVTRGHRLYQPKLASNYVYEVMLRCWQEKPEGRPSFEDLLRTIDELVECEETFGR

[34] = target: Ephrin type-B receptor 3 (Homo sapiens) (UniProt P54753); conditions: Compound concentration 1000.0 nM
Sequence of Ephrin type-B receptor 3 (Homo sapiens) (P54753 whole entry): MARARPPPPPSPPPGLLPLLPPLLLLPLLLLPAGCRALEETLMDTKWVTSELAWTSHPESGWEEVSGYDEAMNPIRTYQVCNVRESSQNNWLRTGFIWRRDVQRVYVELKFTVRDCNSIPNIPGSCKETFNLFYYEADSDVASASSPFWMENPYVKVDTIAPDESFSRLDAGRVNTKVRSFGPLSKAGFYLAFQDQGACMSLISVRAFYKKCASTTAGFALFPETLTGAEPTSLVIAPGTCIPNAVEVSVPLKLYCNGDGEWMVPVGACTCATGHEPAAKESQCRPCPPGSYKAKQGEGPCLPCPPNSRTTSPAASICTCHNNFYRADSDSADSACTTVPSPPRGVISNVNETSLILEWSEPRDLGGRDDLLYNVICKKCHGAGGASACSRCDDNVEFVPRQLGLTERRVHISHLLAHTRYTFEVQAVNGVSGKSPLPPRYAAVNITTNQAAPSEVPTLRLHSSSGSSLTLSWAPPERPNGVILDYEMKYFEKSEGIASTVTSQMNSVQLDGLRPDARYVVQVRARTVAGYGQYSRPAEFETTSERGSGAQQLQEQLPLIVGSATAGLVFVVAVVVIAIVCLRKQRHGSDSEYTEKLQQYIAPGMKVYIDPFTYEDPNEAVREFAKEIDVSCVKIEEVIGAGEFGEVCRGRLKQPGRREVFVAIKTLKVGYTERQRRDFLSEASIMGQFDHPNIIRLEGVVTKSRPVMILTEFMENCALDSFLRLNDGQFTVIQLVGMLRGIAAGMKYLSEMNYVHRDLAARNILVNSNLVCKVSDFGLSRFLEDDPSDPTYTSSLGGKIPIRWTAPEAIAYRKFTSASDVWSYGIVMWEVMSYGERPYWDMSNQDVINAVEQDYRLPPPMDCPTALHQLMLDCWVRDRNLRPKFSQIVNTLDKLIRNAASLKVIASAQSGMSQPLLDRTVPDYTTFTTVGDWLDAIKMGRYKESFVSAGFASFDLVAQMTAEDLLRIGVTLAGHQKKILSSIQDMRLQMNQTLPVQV

[35] = target: cAMP-dependent protein kinase catalytic subunit PRKX (Homo sapiens) (UniProt P51817); conditions: Compound concentration 1000.0 nM
[36] = target: Serine/threonine-protein kinase RIO1 (Homo sapiens) (UniProt Q9BRS2); conditions: Compound concentration 1000.0 nM
[37] = target: Serine/threonine-protein kinase 26 (Homo sapiens) (UniProt Q9P289); conditions: Compound concentration 1000.0 nM
[38] = target: Mitogen-activated protein kinase kinase kinase kinase 5 (Homo sapiens) (UniProt Q9Y4K4); conditions: Compound concentration 1000.0 nM
[39] = target: Tyrosine-protein kinase BTK (Homo sapiens) (UniProt Q06187); conditions: Compound concentration 1000.0 nM

CCC(=N\O)/C(C)=C/c1ccc(F)cc1 [A-079]
residual activity [1]: 100%
residual activity [2]: 100%
residual activity [3]: 100%
residual activity [4]: 92%
residual activity [5]: 100%
inhibition [6]: -7.17%
inhibition [7]: 15.2%
residual activity [8]: 79%
residual activity [9]: 64%
inhibition [10]: -2.32%
residual activity [11]: 76%
residual activity [12]: 82%
residual activity [13]: 80%
residual activity [14]: 100%
residual activity [15]: 80%
residual activity [16]: 83%
residual activity [17]: 67%
residual activity [18]: 91%
residual activity [19]: 77%
residual activity [20]: 80%
residual activity [21]: 74%
residual activity [22]: 81%
residual activity [23]: 76%
residual activity [24]: 87%
residual activity [25]: 100%
residual activity [26]: 95%
residual activity [27]: 72%
residual activity [28]: 83%
residual activity [29]: 100%
residual activity [30]: 86%
residual activity [31]: 74%
residual activity [32]: 92%
residual activity [33]: 89%
residual activity [34]: 75%
residual activity [35]: 96%
residual activity [36]: 80%
residual activity [37]: 81%
residual activity [38]: 80%
residual activity [39]: 78%

CCC(=N\O)/C(C)=C/c1ccc(F)c(C)c1 [A-226]
residual activity [1]: 96%
residual activity [2]: 86%
residual activity [3]: 78%
residual activity [4]: 100%
residual activity [5]: 73%
inhibition [6]: 2.53%
inhibition [7]: -2.46%
residual activity [8]: 97%
residual activity [9]: 100%
inhibition [10]: -0.42%
residual activity [11]: 100%
residual activity [12]: 92%
residual activity [13]: 100%
residual activity [14]: 76%
residual activity [15]: 100%
residual activity [16]: 100%
residual activity [17]: 86%
residual activity [18]: 46%
residual activity [19]: 100%
residual activity [20]: 94%
residual activity [21]: 100%
residual activity [22]: 91%
residual activity [23]: 100%
residual activity [24]: 100%
residual activity [25]: 80%
residual activity [26]: 100%
residual activity [27]: 100%
residual activity [28]: 100%
residual activity [29]: 100%
residual activity [30]: 92%
residual activity [31]: 80%
residual activity [32]: 100%
residual activity [33]: 100%
residual activity [34]: 96%
residual activity [35]: 94%
residual activity [36]: 100%
residual activity [37]: 100%
residual activity [38]: 100%
residual activity [39]: 100%

— ChEMBL document CHEMBL4507256 (2021)
